# Assay results as given in patent US11453689B2, “3-pyrrolidine-indole derivatives as serotonergic psychedelic agents for the treatment of CNS disorders” (Mindset Pharma Inc., priority 2020, dated 2022).
# Like-named read-outs stand apart in the source and are kept apart here.
# Tests used:
# human 5-HT2A receptor = human 5-HT2A receptor (Homo sapiens (Human), UniProt P28223); assay: Radioligand ([3H]-ketanserin) binding assay on human 5-HT2A receptor
# Method: i. Prepare the assay buffer following the table below;
# ii. Preparation of 8 doses of reference and exemplary test compounds starting from 10 mM stock solution as requested by 5-fold serial dilutions with 100%;
# iii. […] a. Add 50 μl/well of 0.5% (v/v) PEI to UniFilter-96 GF/B plates. Seal the plates and incubate at 4° C. for 3 hrs; b. After incubation, wash the plates 3 times with ice-cold wash buffer (50 mM Tris, pH7.4);
# iv. Preparation of assay plates: a. Dilute cell membrane with assay buffer and add 330 μl/well to 96 round deep well plates to reach a concentration of 20 μg/well; b. Prepare 8 concentrations of reference or exemplary test compounds and add 110 μl/well to 96 round deep well plates; c. Dilute [3H]-ketanserin with assay buffer to 5 nM (5× final concentration) and add 110 μl/well to 96 round deep well plates.
# v. Centrifuge the plate at 1000 rpm for 30 secs and then agitate at 600 rpm, R.T. for 5 min.
# vi. Seal the plates and incubate the plate at 27° C. for 90 min.
# vii. Stop the incubation by vacuum filtration onto GF/B filter plates followed by 4 times washing with ice-cold wash buffer (50 mM Tris, pH7.4).
# ix. Seal the filter plates and add 40 μl/well of scintillation cocktail.
# x. Read the plate by using a Microbeta2 microplate counter.
# For reference and exemplary test compounds, the results are expressed as % Inhibition, using the normalization equation: N=100−100×(U−C2)/(C1−C2), where U is the unknown value, C1 is the average of high controls, and C2 is the average of low controls. The IC50 is determined by fitting percentage of inhibition as a function of compound concentrations with Hill equation using XLfit.
# [1] = Human liver microsomes stability with NADPH; conditions: for Remaining Percentage (%) after 60 min, Human: human liver microsomes, with NADPH, 2 μM; for half-life at 2 μM / microsomal CLint at 2 μM: human, microsomes
# Method: (§1) The objective of this study was to estimate in vitro metabolic stability of exemplary compounds in pooled human, male rat and male mouse liver microsomes. The concentrations of exemplary compounds in reaction systems were evaluated by LC-MS/MS for estimating the stability in pooled human, male rat and male mouse liver microsomes. The in vitro intrinsic clearances of test compounds were determined as well.
# (§2) A master solution in the “Incubation Plate” containing phosphate buffer, ultra-pure H2O, MgCl2 solution and liver microsomes was made according to Table 3. The mixture was pre-warmed at 37° C. water bath for 5 minutes.
# (§3) 40 μL of 10 mM NADPH solution was added to each well. The final concentration of NADPH was 1 mM. The negative control samples were prepared by replacing NADPH with 40 μL of ultra-pure H2O. Samples were prepared in duplicate. Negative controls were prepared in singlet.
# (§4) The reaction was started with the addition of 4 μL of 200 μM exemplary test compounds or control compounds to each master solution to get the final concentration of 2 μM. This study was performed in duplicate.
# (§5) Aliquots of 50 μL were taken from the reaction solution at 0, 15, 30, 45 and 60 minutes. The reaction solutions were stopped by the addition of 4 volumes of cold methanol with IS (100 nM alprazolam, 200 nM imipramine, 200 nM labetalol and 2 μM ketoprofen). Samples were centrifuged at 3,220 g for 40 minutes. Aliquot of 90 μL of the supernatant was mixed with 90 μL of ultra-pure H2O and then was used for LC-MS/MS analysis.
# (§6) LC/MS analysis was performed for all samples from this study using a Shimadzu liquid chromatograph separation system equipped with degasser DGU-20A5R; solvent delivery unit LC-30AD; system controller SIL-30AC; column oven CTO-30A; CTC Analytics HTC PAL System. Mass spectrometric analysis was performed using an Triple Quad™ 5500 instrument.
# (§7) All calculations were carried out using Microsoft Excel. Peak areas were determined from extracted ion chromatograms. The slope value, k, was determined by linear regression of the natural logarithm of the remaining percentage of the parent drug vs. incubation time curve.
# (§8) Conversion of the in vitro t1/2 (min) into the in vitro intrinsic clearance (in vitro CLint, in μL/min/mg proteins) was done using the following equation (mean of duplicate determinations): […]
# [2] = Rat liver microsomes stability with NADPH; conditions: for half-life at 2 μM / microsomal CLint at 2 μM: male, rat, microsomes; for Remaining Percentage (%) after 60 min, Rat: rat liver microsomes, with NADPH, 2 μM
# Method: as §1, §2, §3, §4, §5, §6, §7, §8
# [3] = In vivo pharmacokinetics in male C57BL/6 mice (IV and PO); conditions: mouse; for AUC(0-inf) / C0 / clearance / AUC(0-t) / half-life / MRT inf / Vd / Cmax / Tmax / bioavailability: male, C57BL/6, plasma; for AUC(0-t): read-out: AUC0-tlast; for half-life: read-out: Apparent t1/2 (converted); for MRT inf: read-out: MRT0-inf; for Vd: read-out: Vss; for bioavailability: read-out: F (bioavailability)
# Method: Example 26: In Vivo Assessment of the Pharmacokinetics in Mice and Rats […]
# Male C57BL/6 mice (25-30 g) from Charles River Labs were acclimatized for a minimum of 5 days prior to dosing. Body weights will be recorded on the day of dosing.
# Animals dosed p.o. were deprived of food overnight and fed ˜2 h following dosing.
# Formulations were administered intravenously (i.v.) via the tail vein or orally (p.o.) by gavage with disposable feeding needles.
# Serial blood samples were collected via tail snip. Terminal blood samples will be collected under isoflurane anesthesia by cardiac puncture.
# All blood samples were transferred into K2EDTA tubes on wet ice and centrifuged within 5 min (3200×g for 5 min at 4° C.) to obtain plasma. Plasma will be stored at −80° C. until analysis.
# AB Sciex QTRAP 4000 or 6500 MS/MS system equipped with an LC system with a binary pump, a solvent degasser, a thermostatted column compartment and a multiplate autosampler. i. Analysis software: Phoenix® WinNonlin® 8.2 (Pharsight, Certara, Mountainview, Calif.) ii. Analysis methods: non-compartmental analysis, linear up/log down trapezoidal rule iii. PK parameters: C0, t1/2, AUC0-tlast. AUC0-∞, CL, Vss, MRT, tmax(po), Cmax(po), F, as appropriate • C0 concentration extrapolated to time zero following an i.v. dose • tmax time at which maximum concentration is observed • Cmax maximum observed concentration • Apparent t1/2 apparent terminal half-life • AUC0-tlast area under the concentration vs time curve from time 0 to the time of the last measurable concentration • AUC0-inf area under the concentration vs time curve from time 0 to infinity • CL systemic clearance • MRT0-inf mean residence time from time zero to infinity • Vss steady-state volume of distribution • F bioavailability=(Dose^iv*AUC^po)/(Dose^po*AUC^iv)*100
SMILES,IC50 (human 5-HT2A receptor) [nM],"Remaining Percentage (%) after 60 min, Human [1] [%]",half-life at 2 μM [1] [h],microsomal CLint at 2 μM [1] [µL/min/mg],half-life at 2 μM [2] [h],microsomal CLint at 2 μM [2] [µL/min/mg],"Remaining Percentage (%) after 60 min, Rat [2] [%]","AUC(0-inf) ([3]; IV, 1 mg/kg) [ng·h/mL]","C0 ([3]; IV, 1 mg/kg) [ng/mL]","clearance ([3]; IV, 1 mg/kg) [mL/min/kg]","AUC(0-t) ([3]; IV, 1 mg/kg) [ng·h/mL]","half-life ([3]; IV, 1 mg/kg) [h]","MRT inf ([3]; IV, 1 mg/kg) [h]","Vd ([3]; IV, 1 mg/kg) [L/kg]","AUC(0-inf) ([3]; PO, 10 mg/kg) [ng·h/mL]","Cmax ([3]; PO, 10 mg/kg) [ng/mL]","Tmax ([3]; PO, 10 mg/kg) [h]","AUC(0-t) ([3]; PO, 10 mg/kg) [ng·h/mL]","half-life ([3]; PO, 10 mg/kg) [h]","bioavailability ([3]; PO, 10 mg/kg) [%]",also measured
"[2H]C([2H])([2H])N1CCC[C@@H]1Cc1c[nH]c2cccc(O)c12 [Compound I-2, (R)-3-((1-(methyl-d3)pyrrolidin-2-yl)methyl)-1H-indol-4-ol]",< 500,82.10,3.51,6.57,0.627,36.8,33.13,463 ± 423,3590 ± 4100,64.5,461 ± 421,3.09 ± 2.79,0.733 ± 0.194,3.09 ± 3.22,314,117 ± 23.7,0.25,271 ± 30.9,9.31,6.27 ± 0.906,"AUC(0-inf) ([3]; IV, 5 mg/kg): 1410 ± 862 ng·h/mL; C0 ([3]; IV, 5 mg/kg): 4780 ± 3570 ng/mL; clearance ([3]; IV, 5 mg/kg): 72.8 mL/min/kg; AUC(0-t) ([3]; IV, 5 mg/kg): 1370 ± 869 ng·h/mL; half-life ([3]; IV, 5 mg/kg): 12.7 ± 4.24 h; MRT inf ([3]; IV, 5 mg/kg): 3.1 ± 1.43 h; Vd ([3]; IV, 5 mg/kg): 15.3 ± 10.5 L/kg; MRT inf ([3]; PO, 10 mg/kg): 7.88 h; AUC0-inf/Dose ([3]; IV, 1 mg/kg): 463 ± 423 kg·ng·h/mL/mg; AUC0-inf/Dose ([3]; IV, 5 mg/kg): 282 ± 172 kg·ng·h/mL/mg; AUC0-inf/Dose ([3]; PO, 10 mg/kg): 31.4 (n = 2) h*kg*ng/mL/mg; Cmax/Dose ([3]; PO, 10 mg/kg): 11.7 ± 2.37 kg·ng/mL/mg"
"[2H]C([2H])(c1c[nH]c2cccc(OC)c12)[C@H]1CCCN1C([2H])([2H])[2H] [Compound I-39, (R)-4-methoxy-3-((1-(methyl-d3)pyrrolidin-2-yl)methyl-d2)-1H-indole]",500 to 5000,73.65,2.27,10.2,0.204,113,3.34,1960 ± 696,1290 ± 782,9.25,1960 ± 696,2.51 ± 0.366,2.78 ± 0.388,1.5 ± 0.397,214 ± 49.6,134 ± 14.7,0.5,210 ± 46.6,3.91 ± 1.81,1.09 ± 0.253,"MRT inf ([3]; PO, 10 mg/kg): 2.3 ± 0.259 h; AUC0-inf/Dose ([3]; IV, 1 mg/kg): 1960 ± 696 kg·ng·h/mL/mg; AUC0-inf/Dose ([3]; PO, 10 mg/kg): 21.4 ± 4.96 kg·ng·h/mL/mg; Cmax/Dose ([3]; PO, 10 mg/kg): 13.4 ± 1.47 kg·ng/mL/mg"
"[2H]C([2H])(c1c[nH]c2cccc(O)c12)[C@H]1CCCN1C([2H])([2H])[2H] [Compound I-44, (R)-3-((1-(methyl-d3)pyrrolidin-2-yl)methyl-d2)-1H-indol-4-ol]",< 500,78.13,2.81,8.23,0.608,38,32.00,598 ± 434,2570 ± 2560,42.5,595 ± 433,1.18 ± 0.205,0.754 ± 0.12,1.98 ± 1.58,537 ± 274,158 ± 55.4,0.75 ± 0.433,477 ± 260,2.71 ± 0.511,8.98 ± 4.58,"MRT inf ([3]; PO, 10 mg/kg): 3.5 ± 0.965 h; AUC0-inf/Dose ([3]; IV, 1 mg/kg): 598 ± 434 kg·ng·h/mL/mg; AUC0-inf/Dose ([3]; PO, 10 mg/kg): 53.7 ± 27.4 kg·ng·h/mL/mg; Cmax/Dose ([3]; PO, 10 mg/kg): 15.8 ± 5.54 kg·ng/mL/mg"
